# Laboratory results taken from patent US9079899B2, “Anti-staphylococcal celecoxib derivatives” (THE OHIO STATE UNIVERSITY, priority 2010, dated 2015).
# Columns and labels:
# Format in all cases: cell-based
# [1] = system: HT-29 human colon adenocarcinoma cells; experiment: Antiproliferative assay (MTT); conditions: 24-h exposure, 10% FBS-supplemented RPMI 1640, MTT
# Method: As celecoxib has been reported to be cytotoxic to cancer cells, the growth inhibitory activities of celecoxib and selected derivatives were assessed in. HT-29 human colon adenocarcinoma cells after 24-h exposure in 10% FBS-supplemented RPMI 1640 medium.
# Antiproliferative assay. The cytotoxicity of individual test agents in HT-29 human colon adenocarcinoma cells was evaluated by using the 3-(4,5-dimethylthiazol-2-yl)-2,5-diphenyltetrazolium (MTT) assay. Briefly, HT-29 cells were seeded into 96-well plates at 1×10^4 cells/well (with a minimum of 6 wells per test condition) in RPMI 1640 medium supplemented with 10% FBS and 10 μg/ml of gentamicin. After overnight incubation at 37° C. under 5% CO2, the medium from each well was removed and replenished with fresh aliquots of the same medium containing various concentrations of test agents dissolved in DMSO (final concentration, 0.1%). Control cells were treated with DMSO alone at a concentration equal to that in drug-treated cells. After 24 h of drug exposure, the medium was removed and replaced by 100 μl of 0.5 mg/ml MTT in 10% FBS-containing medium, and the cells were incubated in the CO2 incubator at 37° C. for 2 h. Subsequently, medium was removed from each well, and the reduced MTT dye was dissolved with 100 μl of DMSO per well. Absorbance at 570 nm was measured with a plate reader. The 50% inhibitory concentration (IC50) of each drug was determined from dose-response curves by using CalcuSyn software (Biosoft, Cambridge, United Kingdom).
# [2] = system: S. epidermidis (ATCC 35984); experiment: MIC, broth microdilution; conditions: CAMHB, 24 h, 37° C.
# [3] = system: S. aureus (ATCC 29213); experiment: MIC, broth microdilution; conditions: CAMHB, 24 h, 37° C.
SMILES,IC50 HT-29 cells [1] [µg/mL],MIC S. epidermidis (ATCC 35984) [2],MIC S. aureus (ATCC 29213) [3],"IC50 ([1]; Homo sapiens, HT-29) [µg/mL]","MIC ([3]; Staphylococcus aureus, ATCC29213, 24 h, read-out: MIC S. aureus (ATCC 29213)) [µg/mL]"
NCCCC[C@H](N)C(=O)Nc1ccc(-n2nc(C(F)(F)F)cc2-c2ccc3c(ccc4ccccc43)c2)cc1 [Compound 34],19.5,4 µg/mL,2 µg/mL,,
NCCCC[C@@H](N)C(=O)Nc1ccc(-n2nc(C(F)(F)F)cc2-c2ccc3c(c2)Nc2ccccc2S3)cc1 [Compound 31],17.5,4 µg/mL,4 µg/mL,,
NCCCC[C@@H](N)C(=O)Nc1ccc(-n2nc(C(F)(F)F)cc2-c2ccc3c(ccc4ccccc43)c2)cc1 [Compound 30],3.2,4 µg/mL,4 µg/mL,,
NCCCC[C@H](N)C(=O)Nc1ccc(-n2nc(C(F)(F)F)cc2-c2ccc3c(c2)Nc2ccccc2S3)cc1 [Compound 35],5.2,4 µg/mL,4 µg/mL,,
NCC(=O)Nc1ccc(-n2nc(C(F)(F)F)cc2-c2ccc(-c3ccc(C(F)(F)F)cc3)cc2)cc1 [Compound 22],,did not exhibit appreciable activity at 64 μg/ml or improved activity relative to celecoxib,did not exhibit appreciable activity at 64 μg/ml or improved activity relative to celecoxib,,
NCC(=O)Nc1ccc(-n2nc(C(F)(F)F)cc2-c2ccc3c(ccc4ccccc43)c2)cc1 [Compound 23],3.6,4 µg/mL,4 µg/mL,,
NCCC(=O)Nc1ccc(-n2nc(C(F)(F)F)cc2-c2ccc3oc4ccccc4c3c2)cc1 [Compound 29],7.2,4 µg/mL,4 µg/mL,,
"NS(=O)(=O)Nc1ccc(-n2nc(C(F)(F)F)cc2-c2ccc3ccccc3c2)cc1 [Compound 45, N-[4-(5-Naphthalen-2-yl-3-trifluoromethyl-pyrazol-1-yl)-phenyl]-aminosulfonamide]",,,,19,1
NCCCC[C@H](N)C(=O)Nc1ccc(-n2nc(C(F)(F)F)cc2-c2ccc(-c3ccc(C(F)(F)F)cc3)cc2)cc1 [Compound 33],3.3,4 µg/mL,4 µg/mL,,
FC(F)(F)c1cc(-c2ccc3c(ccc4ccccc43)c2)n(-c2ccccc2)n1 [Compound 21],,did not exhibit appreciable activity at 64 μg/ml or improved activity relative to celecoxib,did not exhibit appreciable activity at 64 μg/ml or improved activity relative to celecoxib,,
NCCCC[C@@H](N)C(=O)Nc1ccc(-n2nc(C(F)(F)F)cc2-c2ccc3oc4ccccc4c3c2)cc1 [Compound 32],,did not exhibit appreciable activity at 64 μg/ml or improved activity relative to celecoxib,did not exhibit appreciable activity at 64 μg/ml or improved activity relative to celecoxib,,
NCC(=O)Nc1ccc(-n2nc(C(F)(F)F)cc2-c2ccc3oc4ccccc4c3c2)cc1 [Compound 25],6.5,4 µg/mL,4 µg/mL,,
CCCCc1ccc(-c2cc(C(F)(F)F)nn2-c2ccc(C(N)=O)cc2)cc1 [Compound 10],,did not exhibit appreciable activity at 64 μg/ml or improved activity relative to celecoxib,did not exhibit appreciable activity at 64 μg/ml or improved activity relative to celecoxib,,
NS(=O)(=O)c1ccc(-n2nc(C(F)(F)F)cc2-c2ccc(-c3ccc(Cl)cc3)cc2)cc1 [Compound 11],12.5,8 µg/mL,4 µg/mL,,
NCCC(=O)Nc1ccc(-n2nc(C(F)(F)F)cc2-c2ccc(-c3ccc(C(F)(F)F)cc3)cc2)cc1 [Compound 26],4.2,4 µg/mL,4 µg/mL,,
